Tests used:
clinical = conditions: both, human, in vivo, po
[1] = adults; cited from earlier work
[2] = patients co-administered allopurinol and theophylline; cited from earlier work
[3] = febuxostat vs placebo regimen, in words

Compound: Cc1nc(-c2ccc(OCC(C)C)c(C#N)c2)sc1C(=O)O [Febuxostat]
- maximum observed theophylline concentration (Cmax) and exposure to theophylline (AUC), febuxostat vs placebo (in words): comparable

Compound: Cn1c(=O)c2[nH]cnc2n(C)c1=O [Theophylline, 1,3-dimethyl-7H-purine-2,6-dione]
- point estimates for theophylline Cmax, AUC(0-tlqc) and AUC(0-inf) (both, human, in vivo): ~100%
- estimated mean T1/2, CL/F and Vz/F of theophylline, compared between regimens [3]: generally similar
- mean AUC(0-inf) of theophylline, compared between regimens [3]: comparable
- Tmax (clinical): 7 to 9 h
- Vd/F (clinical): 58.2 L
- half-life (clinical): 9.69 h
- biological half-life [1]: about 6 hours

Compound: Oc1ncnc2[nH]ncc12 [allopurinol]
- decrease of theophylline clearance [2]: 21%
- increase of theophylline AUC [2]: up to 27%
- increase of theophylline half-life [2]: approximately 25%
